The source of these data is patent US20230114207A1, “THE COMBINATION OF CYCLIN DEPENDENT KINASE 7 INHIBITOR AND IMMUNOTHERAPY FOR TREATMENT OF CANCER” (Dana-Farber Cancer Institute, Inc., priority 2019, published 2023).

The test system of one series is CDK7-Cyclin H complexes. Nature of the series: Competitive pulldown assay (Bio-THZ1), Cyclin H. Type of series: cell-based, mouse, human. Particulars: SCLC cells (RPP631, DMS79) treated 6 hours. The method, then:
Bio-THZ1 pulldown experiments followed by western blotting of enriched proteins was performed as described in Kwiatkowski, et al., Nature, 2014, 511, 616-620. Briefly, cells were treated with YKL-5-124 or DMSO for 6 hr (in vitro) or 72 hr (in vivo). Following treatment, cells were washed twice with cold PBS and then lysed in the following lysis buffer: 50 mM TrisHCI pH 8.0, 150 mM NaCl, 1% NP-40, 5 mM EDTA, 1 mM DTT, and protease/phosphatase cocktails. Following clearance, lysates were treated with biotinylated THZ1 for pulldown overnight at 4° C. Lysates were further incubated at room temperature for 3 hr to increase the efficiency of covalent bond formation. Lysates were then incubated with streptavidin agarose for pulldown for an additional 2-3 hr at 4° C. Agarose beads were washed 5 times with lysis buffer and then boiled in 2×SDS at 95° C. SDS-page resolved precipitated proteins were probed for the indicated proteins.

For series [1], the system named is INSM1, ASCL1, NFIB and MYC in DMS79 and GLC16. Description: RT-qPCR of super enhancer (SE)-associated genes. The format is cell-based, human. Particulars: 24 hr. The method, then: (§1) Cell pellets were collected and then subjected to total RNA extraction using RNeasy Plus Mini Kit (QIAGEN, Cat #74136) according to the manufacturer's instructions, or using TRIzol:Chloroform phase-separation by centrifugation followed by RNA precipitation using isopropanol. The extracted RNA was reversely transcribed into cDNA using the High-Capacity RNA-to-cDNA™ Kit (Thermo Fisher Scientific, Cat #4387406) according to the manufacturer's instructions. The obtained cDNA samples were diluted and used for RT-qPCR. PowerUp™ SYBR™ Green Master Mix (Thermo Fisher Scientific, Cat #A25742) or TaqMan Gene Expression Master Mix (Life Technologies, Cat #4369514). Gene specific primers with sequences listed in Table 3 were used for PCR amplification and detection on the StepOnePlus™ Real-Time PCR System (Thermo Fisher Scientific). RT-qPCR data were normalized to Actb (mouse cells) or GUSB (human cells) and presented as fold changes of gene expression in the test sample compared to the control.
For orientation: Real-time PCR tracks product formation cycle by cycle.

Series [2] deals with SCLC cells (RPP631, DMS79, GLC16, NCI-H69, NCI-H82). Description: Cell viability assay (CCK-8). Type of series: cell-based, mouse, human. The method, then:
Cells were seeded in 96-well plates (0.01-0.02×10^6 cells/well) in media and treated with YKL-5-124 at indicated concentrations and time points. Cell viability was measured using the MTS-based CCK-8 assay (Dojindo, Cat #CK04). Absorption at 450 nm was measured 3 hr after addition of CCK-8 reagent to cells.

The subject of series [3] is Tnf, Cxcl10 and Cxcl9 in RPP631. Description: RT-qPCR of Tnf, Cxcl10 and Cxcl9. Type of series: cell-based, mouse. Particulars: after 48 hr. The procedure: as §1
Series [4] in a line: In vivo toxicity evaluation in C57BL/6 mice. The method, then: For evaluation of in vivo toxicity of YKL-5-124, a dose-escalating study from 2.5 mg/kg to 15 mg/kg q.d. five times/week via intraperitoneal injection (i.p.) was tested in C57BL/6 mice. In vivo toxicities including body weight and blood cell counts including platelet, red blood cells and white blood cells were monitored. Similarly, a separate cohort was used to evaluate in vivo toxicity of combining YKL-5-124 and anti-PD-1 in C57BL/6 mice. For treatment studies, mice were evaluated by MRI imaging (Preclinical Imaging Laboratory, NYULH) to quantify lung tumor burden before for randomization and after drug treatment for efficacy evaluation. Mice were treated with either vehicle and isotype IgG (Control), anti-PD-1 200 μg/mouse (clone 29F.1A12), YKL-5-124 10 mg/kg, or combined anti-PD-1 and YKL-5-124 (Combo). YKL-5-124 was administered daily from Monday to Friday, and PD-1 antibody was administered three times a week (Monday, Wednesday, and Friday). For chemotherapy, cisplatin (5 mg/kg) was given on Day 1 and etoposide (10 mg/kg) on Day 1, 2, 3 every seven days per cycle for three cycles.

The test system of a further series is RP orthotopic model. Nature of the series: Treatment study in RP orthotopic SCLC model. The format is in vivo, mouse. The procedure: (§2) All animal studies were reviewed and approved by the Institutional Animal Care and Use Committee (IACUC) at the New York University Langone Health (NYULH) and Dana-Farber Cancer Institute (DFCI). From 6 weeks of age, mice were induced with adenovirus-Cre recombinase (Ad-Cre) by intratracheal intubation to allow cre-lox-mediated recombination of floxed Rb1, p53 and p130 alleles. For syngeneic orthotopic models, ultrasound-guided transthoracic injection was performed using 200,000 RPP631, RP or RPP-MYC cells in 30 μL PBS directly into the lung of 6 to S-week-old C57BL/6 (Jackson Laboratory, Stock No: 000664). For OT-IT cell assay, OT-I mice were purchased from the Jackson Laboratory (Stock No: 003S31). Both males and females mice were used and all mice were maintained in accordance with the respective NYULH and DFCI on the care, welfare, and treatment of laboratory animals. […]
(§3) Animals were anesthetized with isoflurane to perform MRI of the lung field using BioSpec USR70/30 horizontal bore system (Bruker) to scan 24 consecutive sections. Tumor volumes within the whole lung were quantified using 3-D slicer software to reconstruct MRI volumetric measurements as described previously. […]

The test system of the next series is RPP-MYC orthotopic model. Nature of the series: Treatment study in RPP-MYC orthotopic SCLC model. Type of series: in vivo, mouse. The method, then:
as §2, §3

For series [5], the system named is TNFα, CXCL9 and CXCL10 in BALF. Nature of the series: Luminex analysis of murine BAL fluid. Type of series: in vivo, mouse. The note with it: after 7-day treatment. The method, then:
Mouse lung bronchoalveolar lavage (BAL) was performed by intratracheal injection of 2 ml of sterile PBS followed by collection by aspiration. TNFα, CXCL9 and CXCL10 levels were measured using mouse Cytokine/Chemokine 32-plex Assay (MILLIPLEX, Millipore) on Luminex® SD system (Luminex). Concentrations (pg/ml) of each protein were derived from 5-parameter curve fitting models according to the manufacturer's instructions.

With `C=CC(=O)Nc1ccc(C(=O)Nc2n[nH]c3c2CN(C(=O)N[C@H](CN(C)C)c2ccccc2)C3(C)C)cc1` [YKL-5-124], the “block of Cyclin H pulldown” value in the series on CDK7-Cyclin H complexes is “efficiently prevented”. Also, the “expression of super enhancer (SE)-associated genes including INSM1, ASCL1, NFIB and MYC” value in series [1] is listed as “no effect”. Besides, the “growth rate (cell viability) compared to control cells” value in series [2] (all tested concentrations, up to 7 days) is “significant reduction”. The “kind of growth effect” value in series [2] (up to day 7) was “cytostatic effect with a tendency of cytotoxic effects at longer time points”. Further, the “tumor cell expression of Tnf, Cxcl10 and Cxcl9” value in series [3] is on record as “significantly stimulated”. Besides, the well tolerated dose entry in series [4] (C57BL/6, mouse, in vivo, ip) is “up to 10 mg/kg”. Also, the “body weight and blood counts” value in series [4] (dose up to 10 mg/kg) is “no significant change”. In the series on RP orthotopic model (RP model, vs control), the “added median survival benefit” value is reported as “approximately 30 days”. For the same compound, the “tumor response / tumor growth (MRI tumor volume)” value in the series on RP orthotopic model (RP orthotopic model) and with RPP-MYC orthotopic model was “notably delayed tumor growth” each time. Besides, in series [5], the “TNFα, CXCL9 and CXCL10 in BALF” value is “pronounced increase”.
